Test results reported in article PMC10685318, “Trans-cyclosulfamidate mannose-configured cyclitol allows isoform-dependent inhibition of GH47 α-D-mannosidases through a bump–hole strategy” (Chemical Science, 2023).

Experiments:
[1] = biological target: T1, CkGH47 L310S (Caulobacter sp. K31, UniProt B0SWV2, L310S); test: Inhibition constant (V0/Vi vs inhibitor, mannose detection kit) with the CkGH47 L310S mutant; assay type: biochemical, Caulobacter K31 strain
T1 sequence (B0SWV2 25-462 L310S): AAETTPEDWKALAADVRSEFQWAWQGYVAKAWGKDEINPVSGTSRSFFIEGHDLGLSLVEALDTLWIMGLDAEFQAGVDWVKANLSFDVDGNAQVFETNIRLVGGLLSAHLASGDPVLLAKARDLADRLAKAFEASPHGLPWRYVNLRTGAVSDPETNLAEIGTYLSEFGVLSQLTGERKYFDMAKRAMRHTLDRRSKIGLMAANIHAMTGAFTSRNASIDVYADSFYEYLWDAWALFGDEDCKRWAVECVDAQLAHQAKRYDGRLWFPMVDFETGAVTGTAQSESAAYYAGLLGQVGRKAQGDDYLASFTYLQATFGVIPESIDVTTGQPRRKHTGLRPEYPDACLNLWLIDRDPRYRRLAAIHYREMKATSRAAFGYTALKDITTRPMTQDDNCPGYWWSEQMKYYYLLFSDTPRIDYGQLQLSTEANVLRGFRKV
Description: Building on this kinetic assay, we obtained an inhibition constant by pre-incubation of the enzyme and 6 for 30 minutes and then following the same time-point procedure as for the Michaelis–Menten assay. […] Similarly, a dissociation constant of 970 nM was obtained using isothermal titration calorimetry (Fig. S6 ^†). To understand the interactions between 6 and CkGH47 L310S regarding the introduced hole, a crystal structure complex was obtained (statistics in Table S2 ^†). Trans-cyclic sulfamidate 6 binds similarly to other conformationally restricted GH47 inhibitors, with additional interactions between the sulfamidate and active site residues, for example, the nitrogen and oxygen, and D249 and R363 side chains. Additionally, the introduced serine residue is indeed now in a position to hydrogen bond to the oxygen of the sulfamidate with a distance of 3.1 Å.
(§1) Trans-Cyclosulfamidate Cyclitols Males et al.
2.1 Biochemical and biological methods
To obtain Michaelis-Menten kinetics
Lastly, to achieve an inhibition constant, the
The gradient of the graph, V0/Vi
After taking each time point, the sample was heat denatured at 95 °C for 5 minutes. The reactions were conducted in triplicate and averaged. […]
microplate spectrophotometer (BioTek). The mannose detection kit (Megazyme) was used to detect […]
dehydrogenase, was monitored at 340 nm. The absorbance after hexokinase was added to the mixture […]

[2] = biological target: T2, BtMan2A (Bacteroides thetaiotaomicron, UniProt Q8AAK6); test: 4-MU activity assay for bacterial GH2 β-mannosidase, purified enzyme; assay type: biochemical
T2 construct: made in house; donated by Dr. W. Offen, University of York
Description: as §1
2.3 GH38 α-mannosidases and GH2 β-mannosidase inhibition studies
All chemicals were of analytical grade and purchased from Sigma-Aldrich unless stated otherwise.
Optimal stability of cell homogenates and enzyme working stocks was ensured by preparation and temporary storage on ice. Cell homogenates were prepared and used on the same day. Protein concentrations were quantified using the Pierce BCA Protein Assay Kit (ThermoFisher). Protein samples were measured in clear flat-bottom polystyrene 96 well microplates (Greiner Bio-One) using a EMax Plus Microplate Reader (Molecular Devices). Activity measurements of human GH38 α-mannosidases and bacterial β-mannosidase BtMan2A were performed in black flat-bottom polystyrene 96 wells microplates (Greiner Bio-One) and total fluorescence was measured using a Perkin Elmer LS-55 fluorescence spectrometer at wavelengths λex = 366 and λem = 445 nm, with the signal optimized for medium gain readings. The fluorescence values of each enzyme sample were corrected for the background signal of a blank sample containing no enzyme. In the case of IC50 determinations, values were normalized against a control sample containing enzyme without added inhibitor. […]

[3] = Chemical stability of the final compounds on storage; assay type: physicochemical
Excerpt: 1,6-Cis-manno-cyclosulfate, 4, and 1,6-trans-manno-cyclosulfate, 5, were synthesized from mannose-configured cis-diol and trans-diol, respectively (ESI, Scheme S1 ^†).

T2 sequence (Q8AAK6 entry or part of it, change not shown): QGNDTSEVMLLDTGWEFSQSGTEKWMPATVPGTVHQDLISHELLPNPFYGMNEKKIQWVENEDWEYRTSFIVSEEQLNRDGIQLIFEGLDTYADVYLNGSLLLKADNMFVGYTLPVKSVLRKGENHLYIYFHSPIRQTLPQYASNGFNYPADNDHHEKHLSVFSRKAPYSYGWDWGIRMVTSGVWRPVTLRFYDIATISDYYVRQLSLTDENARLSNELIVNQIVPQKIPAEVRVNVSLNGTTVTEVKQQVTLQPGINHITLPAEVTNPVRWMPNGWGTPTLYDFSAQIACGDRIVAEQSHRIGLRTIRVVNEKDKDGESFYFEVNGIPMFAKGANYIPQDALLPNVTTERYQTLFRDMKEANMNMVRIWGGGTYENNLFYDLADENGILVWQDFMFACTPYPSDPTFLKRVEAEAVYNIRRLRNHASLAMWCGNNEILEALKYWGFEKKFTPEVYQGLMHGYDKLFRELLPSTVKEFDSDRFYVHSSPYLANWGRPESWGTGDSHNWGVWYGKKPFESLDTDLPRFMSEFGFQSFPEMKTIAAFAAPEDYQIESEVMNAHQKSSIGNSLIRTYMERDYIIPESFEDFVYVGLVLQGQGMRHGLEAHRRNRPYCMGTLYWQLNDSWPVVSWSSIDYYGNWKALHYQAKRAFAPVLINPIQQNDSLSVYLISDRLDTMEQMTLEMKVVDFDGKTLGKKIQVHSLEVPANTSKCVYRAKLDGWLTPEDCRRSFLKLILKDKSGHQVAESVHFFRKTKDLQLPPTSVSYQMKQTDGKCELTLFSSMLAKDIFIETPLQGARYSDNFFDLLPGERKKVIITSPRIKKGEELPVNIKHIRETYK

Question: For O=S1(=O)N[C@@H]2[C@@H](O)[C@@H](O)[C@H](O)[C@@H](CO)[C@H]2O1 [compound 6, 1,6-trans-manno-cyclosulfamidate], which Ki [1] is on record?
Answer: 0.574 µM

Question: And the IC50 [2]?
Answer: > 1000 µM

Question: And the chemical stability [3]?
Answer: chemically stable
